Like-named read-outs stand apart in the source and are kept apart here.
Legend:
[1] = tested on: A431 skin cancer cell line; experiment: Cancer cell growth inhibition, A431 (SRB); details: Homo sapiens, A-431, 72 h, read-out: ID50 (nM) A431
[2] = tested on: SW-620 colon/rectal cancer cell line; experiment: Cancer cell growth inhibition, SW-620 (SRB); details: Homo sapiens, SW-620, 72 h, read-out: IC50 (nM) SW-620
[3] = tested on: SK-Br3 breast cancer cell line; experiment: Cancer cell growth inhibition, SK-Br3 (SRB); details: Homo sapiens, SK-BR-3, 72 h, read-out: ID50 (nM) SK-Br3
EGFR = molecular target: T1, EGFR (Homo sapiens, UniProt P00533); experiment: Prolongation study in A431 cells (EGFR phosphorylation inhibition); format: cell-based; details: A-431, 1 μM for 4 hrs, then washed, EGF 100 ng/ml
T1 construct: A skin cancer cell line, A431 (ATCC: CRL-1555), was used; endogenous in cells; host or cells: A431 (ATCC: CRL-1555)
T1 sequence (P00533 25-1210): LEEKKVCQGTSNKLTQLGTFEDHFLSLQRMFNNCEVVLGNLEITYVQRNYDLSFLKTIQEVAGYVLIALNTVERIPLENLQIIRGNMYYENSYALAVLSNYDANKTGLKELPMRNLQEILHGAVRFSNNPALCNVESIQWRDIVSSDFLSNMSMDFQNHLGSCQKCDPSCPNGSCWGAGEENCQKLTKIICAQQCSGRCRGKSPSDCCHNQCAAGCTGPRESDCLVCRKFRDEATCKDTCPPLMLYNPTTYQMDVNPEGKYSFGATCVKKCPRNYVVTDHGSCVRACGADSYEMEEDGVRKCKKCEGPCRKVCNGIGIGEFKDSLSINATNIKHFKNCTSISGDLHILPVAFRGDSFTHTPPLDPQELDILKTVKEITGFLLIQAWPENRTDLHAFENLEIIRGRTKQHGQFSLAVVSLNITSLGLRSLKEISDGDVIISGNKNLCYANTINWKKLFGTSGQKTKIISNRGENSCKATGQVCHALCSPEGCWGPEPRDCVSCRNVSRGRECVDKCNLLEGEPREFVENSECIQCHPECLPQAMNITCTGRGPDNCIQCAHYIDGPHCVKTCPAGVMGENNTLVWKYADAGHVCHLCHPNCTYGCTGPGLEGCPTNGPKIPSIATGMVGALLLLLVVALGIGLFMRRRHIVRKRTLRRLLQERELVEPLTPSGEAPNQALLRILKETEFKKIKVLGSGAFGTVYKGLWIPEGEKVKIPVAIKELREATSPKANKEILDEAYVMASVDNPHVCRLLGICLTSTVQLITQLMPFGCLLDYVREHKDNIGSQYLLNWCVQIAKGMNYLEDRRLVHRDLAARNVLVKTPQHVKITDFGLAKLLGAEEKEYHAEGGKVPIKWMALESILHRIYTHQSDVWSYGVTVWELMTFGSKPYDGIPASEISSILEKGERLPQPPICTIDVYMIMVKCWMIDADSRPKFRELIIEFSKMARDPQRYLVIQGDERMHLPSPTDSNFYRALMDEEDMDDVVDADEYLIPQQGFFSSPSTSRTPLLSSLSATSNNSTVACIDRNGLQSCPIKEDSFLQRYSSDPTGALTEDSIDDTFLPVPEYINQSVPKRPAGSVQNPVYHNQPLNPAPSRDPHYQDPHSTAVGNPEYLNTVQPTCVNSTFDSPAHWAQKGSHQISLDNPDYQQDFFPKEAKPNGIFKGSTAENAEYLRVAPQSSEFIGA
Method: A skin cancer cell line, A431 (ATCC: CRL-1555), was used to test the degrees of the inventive compounds in inhibiting EGFR's phosphorylation and the prolongation of ability to inhibit it thereof.
The cell line was incubated in a culture flask at 37° C. under 95% air and 5% CO2 using a culture medium containing DMEM, 10% FBS and 1% PS. When more than 90% of the total volume of the culture flask became filled with cells, the cultured cell solution was subject to secondary incubation and was poured to each well of a 6-well plate to the extent of 500,000 cells/well. After 24 hrs, the cells were separated from the solution, washed with PBS, and incubated in a culture medium containing DMEM, 0.1% FBS and 1% PS for 16 hrs. The compounds obtained in Examples 1, 17, 19 and 36, and Tarceva as EGFR phosphorylation inhibitors were each added to the cell-containing well to a concentration of 1 μM. After 4 hrs, the cells were separated from the solution, washed 4 times with PBS after every 0, 2, 4 and 8 hrs, and incubated in a culture medium containing DMEM, 0.1% FBS and 1% PS. […] Just before the completion of the reaction, the cultured cell solution was treated with a 100 ng/ml concentration of EGF (Sigma, Cat No. E9644) for 5 mins to induce the activation of EGFR. After the completion of the reaction, the well plate holding the cultured cells was stored at −70° C. In control groups, the replacement of the medium was performed instead of the addition of the EGFR phosphorylation inhibitor, wherein the induction of EGFR activation using EGF was made only in a positive control group and not made in a negative control group.
For Western blot and enzyme immune measuring (ELISA) methods, the well plate stored at −70° C. was allowed to melt to room temperature, and then protein was extracted from the cells in the well plate using a protein extract buffer. The extraction of the protein was performed as follows: 250 μl of the protein extract buffer (Phosphosafe extraction reagent, Calbiochem, Cat No. 71296-3) comprising protease inhibitor cocktail was added to each cell-containing well, which was stirred at room temperature for 5 mins. The cells were collected using a cell scraper and put in an 1.5 ml tube, which was centrifuged at a speed of 16,000×g for 5 mins. The upper layer thus obtained was separated, of which the protein content was determined by a protein assay kit (Bio-rad, Cat No. 500-0116). The protein extracted was diluted with PBS to a concentration of 0.8 mg/ml.
A human EGFR (py1173) immunoassay kit (Biosource, Cat No. KHR9071) was used in the enzyme immune measuring method. 100 μl of the sample which was diluted by 4 folds with a standard dilution buffer in a kit was added to a strip well, which was incubated at a 4° C. refrigerator overnight. The cultured cells was separated therefrom and washed 4 times with 200 μl of a washing buffer. 100 μl of the resulting primary antibody (anti-human EGFR [pY1173]) was put to each strip well, incubated at 37° C. for 1 hr, and washed 4 times with 200 μl of a washing buffer. The resulting secondary antibody (anti-rabbit IgG-HRP) was diluted by 100 folds with an HRP dilution buffer in a kit. 100 μl of the dilute was put to each strip well, incubated at 37° C. for 30 mins, and washed 4 times with 200 μl of the washing buffer. 100 μl of an HRP substrate in a kit was put to each strip well and incubated in a darkroom for 10 to 30 mins. 100 μl of a reaction stop solution was added thereto to terminate the reaction, and then, the absorbance at 450 nm was observed.
Electrophoresis and Western blot methods were conducted based on the conventional methods in the following: An LDS buffer was added to each sample, which was allowed to boil at 70° C. for 10 mins. 10 μl of the resulting solution was loaded to a 12-well gel (Nupage 4˜12% Bis-tris gel, Invitrogen), followed by 120 volt-electrophoresis in a buffer (MOPS electrophoresis buffer, Invitrogen, Cat No. NP0006-1) for 2 hrs. […]

[4] = tested on: H1975 lung cancer cell line; experiment: Cancer cell growth inhibition, H1975 (celltiter); details: Homo sapiens, NCI-H1975, 48 h, read-out: IC50 (nM) H1975
Method: The medium was removed from each well of the 96-well plate.
In case of H1975, the cells were diluted with a culture medium to a concentration of 50,000 cells/ml. 100 μl of the diluted cell solution was added to each well of a 96-well plate, and, after 1 day, was washed with a mixture of RPMI, 0.1% FBS and 1% penicillin-streptomycin (PS), followed by replacement of the medium. The plate was allowed to be kept overnight and be treated to various concentrations under the same medium condition for 48 hrs. Similarly to an MTT assay, 15 μl of a celltiter one shot solution (Promega) was added to each well, which was incubated for 2 to 3 hrs, and, then, the absorbance at 490 nm was determined.

EGFR T790M kinase = EGFR T790M kinase (Homo sapiens, UniProt P00533, T790M); experiment: Inhibition of EGFR mutant enzyme (T790M)
EGFR T790M kinase, sequence (P00533 25-1210 T790M): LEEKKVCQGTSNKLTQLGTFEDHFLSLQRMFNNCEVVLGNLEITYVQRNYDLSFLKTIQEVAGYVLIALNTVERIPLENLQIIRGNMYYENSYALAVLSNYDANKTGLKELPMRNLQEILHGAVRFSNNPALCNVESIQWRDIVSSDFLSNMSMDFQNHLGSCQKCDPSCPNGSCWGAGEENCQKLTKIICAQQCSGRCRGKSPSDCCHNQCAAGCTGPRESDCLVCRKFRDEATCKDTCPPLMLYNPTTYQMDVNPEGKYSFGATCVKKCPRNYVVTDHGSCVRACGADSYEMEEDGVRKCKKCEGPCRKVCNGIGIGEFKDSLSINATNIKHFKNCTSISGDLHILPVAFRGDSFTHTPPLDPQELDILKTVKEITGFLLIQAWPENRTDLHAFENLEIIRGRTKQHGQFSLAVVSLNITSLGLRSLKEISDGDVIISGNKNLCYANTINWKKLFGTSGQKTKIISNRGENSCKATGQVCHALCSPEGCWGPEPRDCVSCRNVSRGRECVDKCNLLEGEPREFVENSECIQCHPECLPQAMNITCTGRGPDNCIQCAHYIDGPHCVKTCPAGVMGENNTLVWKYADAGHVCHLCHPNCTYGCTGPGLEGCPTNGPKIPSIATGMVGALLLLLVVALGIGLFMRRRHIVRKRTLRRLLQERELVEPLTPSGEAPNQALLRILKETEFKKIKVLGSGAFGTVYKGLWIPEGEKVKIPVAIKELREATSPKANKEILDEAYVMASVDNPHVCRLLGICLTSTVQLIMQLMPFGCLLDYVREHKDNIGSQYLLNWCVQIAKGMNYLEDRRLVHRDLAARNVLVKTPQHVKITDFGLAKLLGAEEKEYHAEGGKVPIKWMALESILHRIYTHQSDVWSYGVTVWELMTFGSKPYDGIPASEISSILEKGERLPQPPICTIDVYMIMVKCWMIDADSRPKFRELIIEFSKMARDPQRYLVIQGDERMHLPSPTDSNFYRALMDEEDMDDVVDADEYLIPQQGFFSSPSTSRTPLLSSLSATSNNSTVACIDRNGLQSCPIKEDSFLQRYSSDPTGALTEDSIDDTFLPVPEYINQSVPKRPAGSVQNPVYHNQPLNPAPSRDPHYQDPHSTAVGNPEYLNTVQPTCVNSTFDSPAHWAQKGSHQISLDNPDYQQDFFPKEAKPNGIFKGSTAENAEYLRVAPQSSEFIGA

[5] = molecular target: EGFR (EGFR type 1 kinase, Upstate) (Homo sapiens, UniProt P00533); experiment: Inhibition of EGFR enzyme (fluorescence polarization kinase assay)
EGFR (EGFR type 1 kinase, Upstate), sequence (P00533 25-1210): as the sequence (P00533 25-1210) above
Method: 10 μl of an EGFR (EGFR type 1 kinase, Upstate, 10 ng/μl) was added to each well of a 96-well plate. […] The calculation and analysis of IC50 were carried out by using Microsoft Excel.

[6] = 0 hr after washing, read-out: EGFR phosphorylation inhibition in A431 cell line (%) 0 hr Avg.
[7] = 8 hrs after washing, read-out: EGFR phosphorylation inhibition in A431 cell line (%) 8 hrs Avg.
[8] = 24 hrs after washing, read-out: EGFR phosphorylation inhibition in A431 cell line (%) 24 hrs Avg.
[9] = 48 hrs after washing, read-out: EGFR phosphorylation inhibition in A431 cell line (%) 48 hrs Avg.
[10] = read-out: IC50 (nM) T790M, EGFR T790M kinase
[11] = read-out: IC50 (nM) EGFR, EGFR type 1 kinase, ATP 50 μM

Row | inhibition at 1 µM (EGFR; [6]) | inhibition at 1 µM (EGFR; [7]) | inhibition at 1 µM (EGFR; [8]) | inhibition at 1 µM (EGFR; [9]) | inhibition at 1 µM (EGFR; 72 hrs after washing, read-out: EGFR phosphorylation inhibition in A431 cell line (%) 72 hrs Avg.) | IC50 (EGFR T790M kinase) | IC50 [5] | SMILES | IC50 [1] | IC50 [2] | IC50 [3] | IC50 [4] | IC50 (EGFR T790M kinase; [10]) | IC50 [5, 11]
1 | 71% | 71% | 73% | 42% |  |  |  | C=CC(=O)N1CC[C@H](Oc2cc3c(Nc4ccc(F)c(Cl)c4F)ncnc3cc2OC)C1 [Example 1, 1-((3S)-3-(4-(3-chloro-2,4-difluorophenylamino)-7-methoxyquinazolin-6-yloxy)pyrrolidin-1-yl)prop-2-en-1-one] | 4 nM | > 5000 nM | 8 nM | 80 nM |  | 
2 |  |  |  |  |  |  |  | C=CC(=O)N1CC[C@H](Oc2cc3c(Nc4ccc(Br)c(Cl)c4F)ncnc3cc2OC)C1 [Example 7, 1-((3S)-3-(4-(4-bromo-3-chloro-2-fluorophenylamino)-7-methoxyquinazolin-6-yloxy)pyrrolidin-1-yl)pro-2-pen-1-one] | 5 nM | > 5000 nM | 8 nM | 55 nM | 8 nM | 10 nM
3 |  |  |  |  |  |  |  | C=CC(=O)N1CC[C@H](Oc2cc3c(Nc4ccc(OCc5ccccn5)c(Cl)c4)ncnc3cc2OC)C1 [Example 10, 1-((3S)-3-(4-(3-chloro-4-(pyridin-2-ylmethoxy)phenylamino)-7-methoxyquinazolin-6-yloxy)pyrrolidin-1-yl)pro-2-pen-1-one] | 14 nM | > 5000 nM | 7 nM |  | 10 nM | 5 nM
4 |  |  |  |  |  |  |  | C=CC(=O)N1CC[C@H](Oc2cc3c(N[C@H](C)c4ccccc4)ncnc3cc2OC)C1 [Example 11] | 8 nM |  | 13 nM | 167 nM | 27 nM | 12 nM
5 |  |  |  |  |  |  |  | C=CC(=O)N1CC[C@H](Oc2ccc3ncnc(Nc4ccc(F)c(Cl)c4F)c3c2)C1 [Example 15, 1-((3S)-3-(4-(3-chloro-2,4-difluorophenylamino)quinazolin-6-yloxy)pyrrolidin-1-yl)pro-2-pen-1-one] | 5 nM |  | 25 nM | 413 nM | 54 nM | 9 nM
6 |  |  |  |  |  |  |  | C=CC(=O)N1CC[C@H](Oc2ccc3ncnc(Nc4ccc(OCc5cccc(F)c5)c(Cl)c4)c3c2)C1 [Example 16, 1-((3S)-3-(4-(3-chloro-4-(3-fluorobenzyloxy)phenylamino)quinazolin-6-yloxy)pyrrolidin-1-yl)pro-2-pen-1-one] | 15 nM | > 5000 nM | 7 nM |  | 47 nM | 8 nM
7 |  |  |  |  |  |  |  | C=CC(=O)N1CC(Oc2cc3c(N[C@H](C)c4ccccc4)ncnc3cc2OC)C1 [Example 22, (R)-1-(3-(7-methoxy-4-(1-phenylethylamino)quinazolin-6-yloxy)azetidin-1-yl)pro-2-pen-1-one] | 7 nM |  | 1 nM | 156 nM | 15 nM | 6 nM
8 |  |  |  |  |  |  |  | C=CC(=O)N1CC(Oc2cc3c(Nc4cccc(Cl)c4F)ncnc3cc2OC)C1 [Example 23, 1-(3-(4-(3-chloro-2-fluorophenylamino)-7-methoxyquinazolin-6-yloxy)azetidin-1-yl)pro-2-pen-1-one] | 1.6 nM | > 5000 nM | 0.5 nM | 9 nM | 4 nM | 6 nM
9 |  |  |  |  |  |  |  | C=CC(=O)N1CC(Oc2cc3c(Nc4cccc(Cl)c4)ncnc3cc2OC)C1 [Example 26, 1-(3-(4-(3-chlorophenylamino)-7-methoxyquinazolin-6-yloxy)azetidin-1-yl)pro-2-pen-1-one] | 1.6 nM | > 5000 nM | 6 nM | 17.7 nM | 3.3 nM | 1.6 nM
10 |  |  |  |  |  |  |  | C=CC(=O)N1CCC(Oc2cc3c(Nc4cccc(Cl)c4F)ncnc3cc2OC)CC1 [Example 34, 1-(4-(4-(3-chloro-2-fluorophenylamino)-7-methoxyquinazolin-6-yloxy)piperidin-1-yl)pro-2-pen-1-one] | 2 nM | > 5000 nM | 0.2 nM | 22 nM | 5 nM | 6 nM
11 | 90% | 89% | 81% | 41% | 44% |  |  | C=CC(=O)N1CCC(Oc2cc3c(Nc4ccc(Cl)c(Cl)c4F)ncnc3cc2OC)CC1 [Example 36, 1-(4-(4-(3,4-dichloro-2-fluorophenylamino)-7-methoxyquinazolin-6-yloxy)piperidin-1-yl)pro-2-pen-1-one] |  | > 5000 nM | 0.3 nM |  |  | 
12 |  |  |  |  |  | 24 nM | 2.7 nM | C=CC(=O)N1CCC(Oc2ccc3ncnc(Nc4ccc(F)c(Cl)c4F)c3c2)CC1 [Example 71, 1-(4-(4-(3-chloro-2,4-difluorophenylamino)quinazolin-6-yloxy)piperidin-1-yl)pro-2-pen-1-one] | 8 nM |  | 5 nM | 70 nM |  | 
13 |  |  |  |  |  | 3 nM |  | C=CC(=O)N1CCC(Oc2cc3c(Nc4ccc(F)c(Cl)c4F)ncnc3cc2OCCOC)CC1 [Example 117, 1-(4-(4-(3-Chloro-2,4-difluorophenylamino)-7-(2-methoxyethoxy)quinazolin-6-yloxy)piperidin-1-yl)prop-2-en-1-one] | 4 nM | > 5000 nM | 1.4 nM | 47 nM |  | 0.7 nM
14 |  |  |  |  |  |  |  | C=CC(=O)N1CC[C@H](Oc2cc3c(Nc4ccc(F)c(Cl)c4F)ncnc3cc2OC)C[C@H]1C(N)=O [Example 120, (2S,4S)-1-acryloyl-4-(4-(3-chloro-2,4-difluorophenylamino)-7-methoxyquinazolin-6-yloxy)piperidin-2-carboxamide] | 3 nM | > 5000 nM | 1.3 nM | 5.2 nM | 0.7 nM | 1.4 nM

Source: patent US8188102B2, “Amide derivative for inhibiting the growth of cancer cells” (Hanmi Holdings Co., Ltd., priority 2007, dated 2012)
